≈ marks a conversion by molar mass, not a printed value. Like-named read-outs stand apart in the source and are kept apart here. Residues, ends and D or L forms follow the SMILES beside them.
What was measured:
E. coli (ATCC 25922) = assay: Antibacterial activity (MIC), liquid culture in 96-well microtiter plates; type: cell-based; details: read-out: Minimum inhibitory conc. (MIC) against bacteria 11
Description: (§1) Piscidin-1 and its analogs were examined for bacterial growth-inhibiting activity in liquid cultures against Gram-positive bacteria including MRSA strains and Gram-negative bacteria (Table 2). […] The therapeutic index is a parameter that signify the specificity or selectivity of antimicrobial agents towards microorganisms over mammalian cells.
(§2) Antibacterial assays with all the peptides were done in 96-well microtiter plates against different Gram-positive, Gram-negative and resistant bacteria as described earlier.

[1] = test system: K. pneumoniae (ATCC 27736); assay: microbe, parasite or virus in culture; type: cell-based; details: for MIC: K. pneumoniae (ATCC 27736), means of three independent experiments each in duplicate ± SD, read-out: Minimum inhibitory conc. (MIC) against bacteria 10; for Minimum inhibitory conc. (MIC) against bacteria 10: ATCC 27736
Description: as §1, §2

[2] = test system: Staphylococcus aureus (ATCC 29213); assay: microbe, parasite or virus in culture; type: cell-based; details: for MIC: Staphylococcus aureus (ATCC 29213), means of three independent experiments each in duplicate ± SD, read-out: Minimum inhibitory conc. (MIC) against bacteria 2; for Minimum inhibitory conc. (MIC) against bacteria 2: ATCC 29213
Description: as §1, §2

[3] = test system: Staphylococcus aureus (ATCC 25923); assay: microbe, parasite or virus in culture; type: cell-based; details: for MIC: Staphylococcus aureus (ATCC 25923), means of three independent experiments each in duplicate ± SD, read-out: Minimum inhibitory conc. (MIC) against bacteria 1; for Minimum inhibitory conc. (MIC) against bacteria 1: ATCC 25923
Description: as §1, §2

[4] = test system: P. aeruginosa (ATCC BAA-427); assay: microbe, parasite or virus in culture; type: cell-based; details: for MIC: P. aeruginosa (ATCC BAA-427), means of three independent experiments each in duplicate ± SD, read-out: Minimum inhibitory conc. (MIC) against bacteria 8; for Minimum inhibitory conc. (MIC) against bacteria 8: ATCC BAA-427
Description: as §1, §2

B. subtilis (ATCC 6633) = assay: microbe, parasite or virus in culture; type: cell-based; details: for MIC: B. subtilis (ATCC 6633), means of three independent experiments each in duplicate ± SD, read-out: Minimum inhibitory conc. (MIC) against bacteria 9; for Minimum inhibitory conc. (MIC) against bacteria 9: ATCC 6633
Description: as §1, §2

[5] = test system: Staphylococcus aureus (ATCC 33592 Gentamycin Resistant); assay: microbe, parasite or virus in culture
Description: as §1, §2

[6] = test system: Staphylococcus aureus (ATCC 700698 MRSA); assay: microbe, parasite or virus in culture
Description: as §1, §2

[7] = test system: Staphylococcus aureus (ATCC 700699 MRSA); assay: microbe, parasite or virus in culture
Description: as §1, §2

[8] = test system: Staphylococcus aureus (ATCC 1708 MRSA); assay: microbe, parasite or virus in culture
Description: as §1, §2

[9] = test system: Staphylococcus aureus (ATCC BAA-44 MRSA); assay: microbe, parasite or virus in culture
Description: as §1, §2

[10] = test system: human red blood cells (hRBCs); type: cell-based
Description: Cytotoxic activity of piscidin-1 and its designed analogs was examined by assaying the lysis of human red blood cells (hRBCs) and the viability of murine 3T3 cells in presence of these peptides. […] Introduction of D-lysine (dK)residues instead of threonine residues at 15th & 21st positions further reduced the haemolytic activity of piscidin-1 (Fig. 1A). Overall, haemolytic activity of these peptides against hRBCs followed the order piscidin-1 > T15K-piscidin-1 > T15dK-piscidin-1 > T15,21K-piscidin-1 > T15,21dK-piscidin-1. Viability of 3T3 cells as determined by MTT assay in the presence of these peptides followed the same trend as their haemolytic activity (Fig. 1B).
Haemolytic activity of the peptides against human red blood cells in PBS was performed by assaying the ability of the peptides to lyse the hRBCs[24][48]. For this purpose, fresh human red blood cells (hRBCs) were collected in the presence of an anti-coagulant from a healthy volunteer. After washing the blood three times with PBS haemolytic activity of the peptides were determined as reported previously. Methodology of our experiment with human blood was in accordance with relevant guidelines and regulations of CSIR-central drug research institute ethics committee and was approved by it with approval No. CDRI/IEC/2014/A5. Further, informed consent was obtained from the healthy volunteer before collection of blood as per the guideline of our Institutional ethics committee.

hRBCs = assay: Localization of NBD-labelled peptides onto hRBCs by confocal microscopy, quantitative fluorescence; type: cell-based, human; details: NBD-labelled peptides ~10.0 μM, at least 25 cells analysed
Description: Figure 3 Confocal laser scanning microscopy to look into the localization of piscidin-1 and its selected analogs onto E. coli and hRBCs. […] Fluorescence and DIC images for treatment of different cells with each of the peptides are shown as marked on top of the respective panel. Panels (C) and (D) show the quantitative analysis of fluorescence intensity of E. coli and hRBCsbound to NBD-labeled piscidin-1, T15,21K-piscidin-1 and T15,21dK-piscidin-1 respectively.
The localization of NBD-labeled piscidin-1, T15,21K-piscidin-1 and T15,21dK-piscidin-1 was also studied onto hRBCs by confocal microscopy. […] Quantitative analyses of the confocal microscopic fluorescence images were carried out. At least 25 cells from fluorescence images for each set of experiments were included in the analysis. The results are shown at the bottom of the fluorescence images of the respective cells (Fig. 3C and D).

[11] = test system: E. coli 0111:B4 LPS-administered mice; assay: In vivo anti-LPS activity: survival of LPS-administered mice (septic shock); details: single dose 1.0 mg/kg i.p. after LPS 12 mg/kg; BALB/c mice; monitored 7 days
Description: Septic shock in BALB/c mice was induced by intraperitoneal (i.p.) injection of E. coli LPS (12 mg/kg) followed by i.p. injection of T15,21K-piscidin-1 (0.5 mg/Kg) or T15,21dK-piscidin-1 (1 mg/Kg) or polymyxin B (1 mg/Kg) ~5 min later. Mice treated with only saline was taken as control. Survival of the animals (n = 5) was monitored for 7 days (***p < 0.0001, log-rank test).
Polymyxin B was taken as the positive control and the experiments were performed as reported earlier[14][30][31].
In vivo studies, treat ment of Mice
Female BALB/c mice (National laboratory animal centre, central drug research institute,
Lucknow) we re given a s tandard laborato r y diet an d water ad libitum and housed under controlled
environmental conditions. The mice wer e approx imatel y 25 g each at the st art of experiments. All
the mice were divided into experimental groups for the administration of LPS and peptides. Mice
were treated with 12 m g/ kg E. coli 0111: B4 LPS i n presen ce and in absen ce of peptide in different
experimental groups. The mice treated with saline onl y, in absence of LP S were considered as
experimental controls. To study the efficacy of a peptide in neutralizing LPS-induced pro-
inflammatory responses in mice ~5 min post LPS treatment, the respective peptide was
administered i.p. at a site other than the one, used for LPS injection. […] Survival of mice was
monitored for 7 da ys. Survival of mice was also mo nitored following th e treatment of onl y p eptides
for investigating their toxic effects.

[12] = means of three independent experiments each in duplicate ± SD
[13] = Staphylococcus aureus (ATCC 33592 Gentamycin Resistant), means of three independent experiments each in duplicate ± SD
[14] = Staphylococcus aureus (ATCC 700698 MRSA), means of three independent experiments each in duplicate ± SD
[15] = Staphylococcus aureus (ATCC 700699 MRSA), means of three independent experiments each in duplicate ± SD
[16] = Staphylococcus aureus (ATCC 1708 MRSA), means of three independent experiments each in duplicate ± SD
[17] = Staphylococcus aureus (ATCC BAA-44 MRSA), means of three independent experiments each in duplicate ± SD

CCn1cc(C(=O)O)c(=O)c2cc(F)c(N3CCNCC3)cc21 [Norfloxacin, reference compound]
MIC (E. coli (ATCC 25922); Escherichia coli, ATCC25922, means of three independent experiments each in duplicate ± SD): 0.125 µM (≈ 0.0399 µg/mL) | MIC ([1]; Klebsiella pneumoniae, ATCC27736): 0.125 µM (≈ 0.0399 µg/mL) | MIC ([2]; ATCC29213): 2.44 µM (≈ 0.779 µg/mL) | MIC ([3]; ATCC25923): 1.22 µM (≈ 0.39 µg/mL) | MIC ([4]; Pseudomonas aeruginosa, ATCCBAA427): 2.19 µM (≈ 0.699 µg/mL) | MIC (B. subtilis (ATCC 6633); Bacillus subtilis, ATCC6633): 0.39 µM (≈ 0.125 µg/mL) | MIC ([5]; Staphylococcus aureus, ATCC33592, read-out: Minimum inhibitory conc. (MIC) against bacteria 4): 2.44 µM (≈ 0.779 µg/mL) | MIC ([6]; Staphylococcus aureus, ATCC700698|MRSA, read-out: Minimum inhibitory conc. (MIC) against bacteria 6): > 150 µM | MIC ([7]; Staphylococcus aureus, ATCC700699|MRSA, read-out: Minimum inhibitory conc. (MIC) against bacteria 3): > 150 µM | MIC ([8]; Staphylococcus aureus, ATCC1708|MRSA, read-out: Minimum inhibitory conc. (MIC) against bacteria 7): > 150 µM | MIC ([9]; Staphylococcus aureus, ATCCBAA44|MRSA, read-out: Minimum inhibitory conc. (MIC) against bacteria 5): 39 µM (≈ 12.5 µg/mL)

CC[C@H](C)[C@H](NC(=O)CNC(=O)[C@H](CCCNC(=N)N)NC(=O)[C@H](Cc1ccccc1)NC(=O)[C@@H](NC(=O)[C@H](Cc1c[nH]cn1)NC(=O)[C@H](Cc1c[nH]cn1)NC(=O)[C@H](Cc1ccccc1)NC(=O)[C@@H](N)Cc1ccccc1)[C@@H](C)CC)C(=O)N[C@H](C(=O)N[C@@H](Cc1c[nH]cn1)C(=O)N[C@H](C(=O)NCC(=O)N[C@@H](CCCCN)C(=O)N[C@H](CCCCN)C(=O)N[C@H](C(=O)N[C@@H](Cc1c[nH]cn1)C(=O)N[C@@H](CCCNC(=N)N)C(=O)N[C@@H](CC(C)C)C(=O)N[C@H](C(=O)N[C@H](C(=O)NCC(N)=O)[C@@H](C)O)C(C)C)[C@@H](C)CC)C(C)C)C(C)C [T15dK Piscidin-1] (HELM PEPTIDE1{F.F.H.H.I.F.R.G.I.V.H.V.G.K.[dK].I.H.R.L.V.T.G.[am]}$$$$V2.0)
HC50, peptide concentration leading to 50% lysis of human RBC [10]: 125 µM | MIC (E. coli (ATCC 25922); [12]): 4.0 µM (≈ 10.4 µg/mL) | Minimum inhibitory conc. (MIC) against bacteria 10 [1]: 3.6 ± 0.5 µM (≈ 9.35 µg/mL) | Minimum inhibitory conc. (MIC) against bacteria 2 [2]: 2.5 ± 0.4 µM (≈ 6.5 µg/mL) | Minimum inhibitory conc. (MIC) against bacteria 1 [3]: 2.5 ± 0.4 µM (≈ 6.5 µg/mL) | Minimum inhibitory conc. (MIC) against bacteria 8 [4]: 7.5 ± 1.0 µM (≈ 19.5 µg/mL) | Minimum inhibitory conc. (MIC) against bacteria 9 (B. subtilis (ATCC 6633)): 9.0 ± 1.3 µM (≈ 23.4 µg/mL) | Minimum inhibitory conc. (MIC) against bacteria 4 ([5]; ATCC 33592): 2.5 ± 0.4 µM (≈ 6.5 µg/mL) | Minimum inhibitory conc. (MIC) against bacteria 6 ([6]; ATCC 700698): 5.0 ± 0.7 µM (≈ 13 µg/mL) | Minimum inhibitory conc. (MIC) against bacteria 3 ([7]; ATCC 700699): 10.0 ± 1.4 µM (≈ 26 µg/mL) | Minimum inhibitory conc. (MIC) against bacteria 7 ([8]; ATCC 1708): 2.5 ± 0.4 µM (≈ 6.5 µg/mL) | Minimum inhibitory conc. (MIC) against bacteria 5 ([9]; ATCC BAA-44): 2.5 ± 0.4 µM (≈ 6.5 µg/mL)

Gentamycin [reference compound]
MIC (E. coli (ATCC 25922); [12]): 3.14 µM | MIC [1]: 3.26 µM | MIC [2]: 1.6 µM | MIC [3]: 0.8 µM | MIC [4]: 1.46 µM | MIC (B. subtilis (ATCC 6633)): 0.048 µM | Minimum inhibitory conc. (MIC) against bacteria 4 [5, 13]: >100 µM | Minimum inhibitory conc. (MIC) against bacteria 6 [6, 14]: >100 µM | Minimum inhibitory conc. (MIC) against bacteria 3 [7, 15]: >100 µM | Minimum inhibitory conc. (MIC) against bacteria 7 [8, 16]: 3.2 µM | Minimum inhibitory conc. (MIC) against bacteria 5 [9, 17]: >50 µM

H-FFHHIFRGIVHVGKKIHRLVTG-NH2 [T15K Piscidin-1]
HC50, peptide concentration leading to 50% lysis of human RBC [10]: 46 µM | MIC (E. coli (ATCC 25922); [12]): 3.5 µM | Minimum inhibitory conc. (MIC) against bacteria 10 [1]: 3.2 ± 0.4 µM | Minimum inhibitory conc. (MIC) against bacteria 2 [2]: 2.5 ± 0.4 µM | Minimum inhibitory conc. (MIC) against bacteria 1 [3]: 1.25 ± 0.3 µM | Minimum inhibitory conc. (MIC) against bacteria 8 [4]: 7.0 ± 1.0 µM | Minimum inhibitory conc. (MIC) against bacteria 9 (B. subtilis (ATCC 6633)): 8.5 ± 1.2 µM | Minimum inhibitory conc. (MIC) against bacteria 4 [5, 13]: 1.25 ± 0.3 µM | Minimum inhibitory conc. (MIC) against bacteria 6 [6, 14]: 2.5 ± 0.4 µM | Minimum inhibitory conc. (MIC) against bacteria 3 [7, 15]: 2.5 ± 0.4 µM | Minimum inhibitory conc. (MIC) against bacteria 7 [8, 16]: 2.5 ± 0.4 µM | Minimum inhibitory conc. (MIC) against bacteria 5 [9, 17]: 1.25 ± 0.3 µM

H-FFHHIFRGIVHVGKTIHRLVTG-NH2 [Piscidin-1]
HC50, peptide concentration leading to 50% lysis of human RBC [10]: 15 µM | MIC (E. coli (ATCC 25922); [12]): 3.0 µM | Minimum inhibitory conc. (MIC) against bacteria 10 [1]: 3.8 ± 0.5 µM | Minimum inhibitory conc. (MIC) against bacteria 2 [2]: 2.5 ± 0.4 µM | Minimum inhibitory conc. (MIC) against bacteria 1 [3]: 1.25 ± 0.3 µM | Minimum inhibitory conc. (MIC) against bacteria 8 [4]: 6.0 ± 0.7 µM | Minimum inhibitory conc. (MIC) against bacteria 9 (B. subtilis (ATCC 6633)): 8.0 ± 1.0 µM | Minimum inhibitory conc. (MIC) against bacteria 4 ([5]; ATCC 33592): 2.5 ± 0.4 µM | Minimum inhibitory conc. (MIC) against bacteria 6 ([6]; ATCC 700698): 2.5 ± 0.4 µM | Minimum inhibitory conc. (MIC) against bacteria 3 ([7]; ATCC 700699): 5.0 ± 0.7 µM | Minimum inhibitory conc. (MIC) against bacteria 7 ([8]; ATCC 1708): 2.5 ± 0.4 µM | Minimum inhibitory conc. (MIC) against bacteria 5 ([9]; ATCC BAA-44): 2.5 ± 0.4 µM

X-FFHHIFRGIVHVGKKIHRLVKG–amide [NBD-T15,21K-piscidin-1, T15,21K-piscidin-1 labelled at its N-terminus by NBD]
fold lower fluorescence of hRBCs bound to peptide than cells bound to NBD-labeled piscidin-1 (hRBCs): about 5 fold

X-FFHHIFRGIVHVGKkIHRLVkG–amide [NBD-T15,21dK-piscidin-1, T15,21dK-piscidin-1 labelled at its N-terminus by NBD]
fold lower fluorescence of hRBCs bound to peptide than cells bound to NBD-labeled piscidin-1 (hRBCs): ~7.5 fold

polymyxin B [reference compound]
mortality rate of LPS-administered mice [11]: zero

From paper PMC5209718, “Piscidin-1-analogs with double L- and D-lysine residues exhibited different conformations in lipopolysaccharide but comparable anti-endotoxin activities” (Scientific Reports, 2017)
